Experimental data from ChEMBL document CHEMBL1201862, “PubChem BioAssay data set” (2004).
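In this assay, cells in 96-well plates receive the compound at five concentrations for 48 hours. Endpoints are linearly interpolated between the surrounding concentrations. GI50: concentration for 50% inhibition of growth.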 The source made the active and inactive calls. Rule as the data show it: active = GI50 up to about 1.1 µM and inactive = higher.

How the values were obtained:
Assay in all cases: NCI anticancer screen, dose series, 48 h
786-0 = tested on: 786-0
A549 = tested on: A549
ACHN = tested on: ACHN
BT-549 = tested on: BT-549
CAKI-1 = tested on: CAKI-1
COLO 205 = tested on: COLO 205
DU-145 = tested on: DU-145
EKVX = tested on: EKVX
HCC 2998 = tested on: HCC 2998
HCT-116 = tested on: HCT-116
HCT-15 = tested on: HCT-15
HOP-62 = tested on: HOP-62
HOP-92 = tested on: HOP-92
HT-29 = tested on: HT-29
Hs-578T = tested on: Hs-578T
IGROV-1 = tested on: IGROV-1
K562 = tested on: K562
KM12 = tested on: KM12
M14 = tested on: M14
MCF7 = tested on: MCF7
MDA-MB-231 = tested on: MDA-MB-231
MDA-MB-435 = tested on: MDA-MB-435
MDA-N = tested on: MDA-N
MOLT-4 = tested on: MOLT-4
Malme-3M = tested on: Malme-3M
NCI-H226 = tested on: NCI-H226
NCI-H23 = tested on: NCI-H23
NCI-H460 = tested on: NCI-H460
NCI-H522 = tested on: NCI-H522
NCI/ADR-RES = tested on: NCI/ADR-RES
OVCAR-3 = tested on: OVCAR-3
OVCAR-5 = tested on: OVCAR-5
OVCAR-8 = tested on: OVCAR-8
PC-3 = tested on: PC-3
RPMI-8226 = tested on: RPMI-8226
RXF 393 = tested on: RXF 393
SF-268 = tested on: SF-268
SF-295 = tested on: SF-295
SF-539 = tested on: SF-539
SK-MEL-28 = tested on: SK-MEL-28
SK-MEL-2 = tested on: SK-MEL-2
SK-MEL-5 = tested on: SK-MEL-5
SK-OV-3 = tested on: SK-OV-3
SN12C = tested on: SN12C
SNB-19 = tested on: SNB-19
SR = tested on: SR
SW-620 = tested on: SW-620
T47D = tested on: T47D
TK-10 = tested on: TK-10
U-251 = tested on: U-251
UACC-257 = tested on: UACC-257
UACC-62 = tested on: UACC-62
UO-31 = tested on: UO-31
A498 = tested on: A498
CCRF-CEM = tested on: CCRF-CEM
HL-60 = tested on: HL-60
LOX IMVI = tested on: LOX IMVI
OVCAR-4 = tested on: OVCAR-4
SNB-75 = tested on: SNB-75

SMILES: Oc1cc(N2CCCC2)ccc1/C=N/N1C(=S)N(c2ccccc2)C(=N\c2ccccc2)/C1=N/c1ccccc1
- GI50 (786-0): > 100 µM (inactive)
- GI50 (A549): > 100 µM (inactive)
- GI50 (ACHN): > 100 µM (inactive)
- GI50 (BT-549): > 100 µM (inactive)
- GI50 (CAKI-1): > 100 µM (inactive)
- GI50 (COLO 205): > 100 µM (inactive)
- GI50 (DU-145): > 100 µM (inactive)
- GI50 (EKVX): > 100 µM (inactive)
- GI50 (HCC 2998): > 100 µM (inactive)
- GI50 (HCT-116): 44.6 µM (inactive)
- GI50 (HCT-15): > 100 µM
- GI50 (HOP-62): 35.2 µM (inactive)
- GI50 (HOP-92): 63.2 µM (inactive)
- GI50 (HT-29): > 100 µM (inactive)
- GI50 (Hs-578T): 60.4 µM (inactive)
- GI50 (IGROV-1): > 100 µM (inactive)
- GI50 (K562): > 100 µM (inactive)
- GI50 (KM12): > 100 µM (inactive)
- GI50 (M14): 34.2 µM (inactive)
- GI50 (MCF7): 70.1 µM (inactive)
- GI50 (MDA-MB-231): 48 µM (inactive)
- GI50 (MDA-MB-435): > 100 µM (inactive)
- GI50 (MDA-N): > 100 µM (inactive)
- GI50 (MOLT-4): > 100 µM (inactive)
- GI50 (Malme-3M): > 100 µM (inactive)
- GI50 (NCI-H226): 58.6 µM (inactive)
- GI50 (NCI-H23): 87.7 µM (inactive)
- GI50 (NCI-H460): > 100 µM (inactive)
- GI50 (NCI-H522): 23.4 µM (inactive)
- GI50 (NCI/ADR-RES): > 100 µM (inactive)
- GI50 (OVCAR-3): > 100 µM (inactive)
- GI50 (OVCAR-5): > 100 µM (inactive)
- GI50 (OVCAR-8): > 100 µM (inactive)
- GI50 (PC-3): > 100 µM (inactive)
- GI50 (RPMI-8226): > 100 µM (inactive)
- GI50 (RXF 393): 14.2 µM (inactive)
- GI50 (SF-268): > 100 µM (inactive)
- GI50 (SF-295): 94.4 µM (inactive)
- GI50 (SF-539): > 100 µM (inactive)
- GI50 (SK-MEL-28): > 100 µM (inactive)
- GI50 (SK-MEL-2): > 100 µM (inactive)
- GI50 (SK-MEL-5): 73.3 µM (inactive)
- GI50 (SK-OV-3): 99.8 µM (inactive)
- GI50 (SN12C): > 100 µM (inactive)
- GI50 (SNB-19): 51.4 µM (inactive)
- GI50 (SR): > 100 µM (inactive)
- GI50 (SW-620): 87.9 µM (inactive)
- GI50 (T47D): > 100 µM (inactive)
- GI50 (TK-10): 75 µM (inactive)
- GI50 (U-251): 31.2 µM (inactive)
- GI50 (UACC-257): > 100 µM (inactive)
- GI50 (UACC-62): 97.7 µM (inactive)
- GI50 (UO-31): > 100 µM (inactive)

SMILES: Oc1ccc2ccccc2c1C(c1ccc(Cl)cc1)c1c(O)ccc2ccccc12
- GI50 (786-0): 3.66 µM (inactive)
- GI50 (A498): 2.7 µM (inactive)
- GI50 (A549): 2.95 µM (inactive)
- GI50 (ACHN): 3.52 µM (inactive)
- GI50 (BT-549): 4.65 µM (inactive)
- GI50 (CAKI-1): 2.71 µM (inactive)
- GI50 (CCRF-CEM): 2.63 µM (inactive)
- GI50 (COLO 205): 2.06 µM (inactive)
- GI50 (DU-145): 3.37 µM (inactive)
- GI50 (EKVX): 2.59 µM (inactive)
- GI50 (HCC 2998): 1.34 µM (inactive)
- GI50 (HCT-116): 2.48 µM (inactive)
- GI50 (HCT-15): 3.49 µM
- GI50 (HL-60): 2.34 µM (inactive)
- GI50 (HOP-62): 3.89 µM (inactive)
- GI50 (HOP-92): 1.65 µM (inactive)
- GI50 (HT-29): 2.98 µM (inactive)
- GI50 (Hs-578T): 0.989 µM (active)
- GI50 (IGROV-1): 2.35 µM (inactive)
- GI50 (K562): 2.67 µM (inactive)
- GI50 (KM12): 2.67 µM (inactive)
- GI50 (LOX IMVI): 2.91 µM (inactive)
- GI50 (M14): 4.06 µM (inactive)
- GI50 (MCF7): 3.57 µM (inactive)
- GI50 (MDA-MB-231): 3.17 µM (inactive)
- GI50 (MDA-MB-435): 3.18 µM (inactive)
- GI50 (MDA-N): 3.31 µM (inactive)
- GI50 (MOLT-4): 2.86 µM (inactive)
- GI50 (Malme-3M): 2 µM (inactive)
- GI50 (NCI-H23): 3.78 µM (inactive)
- GI50 (NCI-H460): 3.16 µM (inactive)
- GI50 (NCI-H522): 2.09 µM (inactive)
- GI50 (NCI/ADR-RES): 2.85 µM (inactive)
- GI50 (OVCAR-3): 2.63 µM (inactive)
- GI50 (OVCAR-4): 3.05 µM (inactive)
- GI50 (OVCAR-5): 3.08 µM (inactive)
- GI50 (OVCAR-8): 3.33 µM (inactive)
- GI50 (PC-3): 2.51 µM (inactive)
- GI50 (RPMI-8226): 2.01 µM (inactive)
- GI50 (RXF 393): 2.96 µM (inactive)
- GI50 (SF-268): 1.66 µM (inactive)
- GI50 (SF-295): 3.4 µM (inactive)
- GI50 (SF-539): 5.05 µM (inactive)
- GI50 (SK-MEL-28): 3.87 µM (inactive)
- GI50 (SK-MEL-2): 2.4 µM (inactive)
- GI50 (SK-MEL-5): 2.3 µM (inactive)
- GI50 (SK-OV-3): 4.66 µM (inactive)
- GI50 (SN12C): 2.76 µM (inactive)
- GI50 (SNB-19): 4.93 µM (inactive)
- GI50 (SNB-75): 3.18 µM (inactive)
- GI50 (SR): 2.82 µM (inactive)
- GI50 (SW-620): 3.18 µM (inactive)
- GI50 (T47D): 2.86 µM (inactive)
- GI50 (TK-10): 3.53 µM (inactive)
- GI50 (U-251): 3.43 µM (inactive)
- GI50 (UACC-257): 4.13 µM (inactive)
- GI50 (UACC-62): 3.48 µM (inactive)
- GI50 (UO-31): 2.9 µM (inactive)
